Laboratory results published in ChEMBL document CHEMBL1201862, “PubChem BioAssay data set” (2004).
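Five concentrations, 48 hours, 96-well plates. GI50 marks 50% less growth.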 The source made the active and inactive calls. Cut-off read from the data, not from the text of the source: active = GI50 up to about 1.1 µM and inactive = higher. Square brackets hold non-standard residues; d marks the D form. Peptide text beside a SMILES is read from it. Ac5c = NC1(C(=O)O)CCCC1

Key:
Assay in all cases: inhibition of tumour cell growth, NCI panel, 48 h
786-0 = system: 786-0
A498 = system: A498
A549 = system: A549
ACHN = system: ACHN
BT-549 = system: BT-549
CAKI-1 = system: CAKI-1
COLO 205 = system: COLO 205
DU-145 = system: DU-145
EKVX = system: EKVX
HCC 2998 = system: HCC 2998
HCT-116 = system: HCT-116
HCT-15 = system: HCT-15
HL-60 = system: HL-60
HOP-62 = system: HOP-62
HOP-92 = system: HOP-92
HT-29 = system: HT-29
Hs-578T = system: Hs-578T
IGROV-1 = system: IGROV-1
K562 = system: K562
KM12 = system: KM12
LOX IMVI = system: LOX IMVI
M14 = system: M14
MCF7 = system: MCF7
MDA-MB-231 = system: MDA-MB-231
MDA-MB-435 = system: MDA-MB-435
MDA-N = system: MDA-N
MOLT-4 = system: MOLT-4
Malme-3M = system: Malme-3M
NCI-H226 = system: NCI-H226
NCI-H460 = system: NCI-H460
NCI-H522 = system: NCI-H522
NCI/ADR-RES = system: NCI/ADR-RES
OVCAR-3 = system: OVCAR-3
OVCAR-4 = system: OVCAR-4
OVCAR-5 = system: OVCAR-5
OVCAR-8 = system: OVCAR-8
PC-3 = system: PC-3
RPMI-8226 = system: RPMI-8226
RXF 393 = system: RXF 393
SF-268 = system: SF-268
SF-295 = system: SF-295
SF-539 = system: SF-539
SK-MEL-28 = system: SK-MEL-28
SK-MEL-2 = system: SK-MEL-2
SK-MEL-5 = system: SK-MEL-5
SK-OV-3 = system: SK-OV-3
SN12C = system: SN12C
SNB-19 = system: SNB-19
SNB-75 = system: SNB-75
SR = system: SR
SW-620 = system: SW-620
T47D = system: T47D
TK-10 = system: TK-10
U-251 = system: U-251
UACC-257 = system: UACC-257
UACC-62 = system: UACC-62
UO-31 = system: UO-31
CCRF-CEM = system: CCRF-CEM
NCI-H23 = system: NCI-H23

Measured: GI50

Clc1ccc(Cc2nc3cc(Cl)c(Cl)cc3n2CC2CCCN3CCCCC23)cc1 (stereo unspecified)
active: UO-31 0.285 µM
inactive: 786-0 11 µM | A498 14.4 µM | A549 13.2 µM | ACHN 10.1 µM | BT-549 13.1 µM | CAKI-1 14.7 µM | COLO 205 10.3 µM | DU-145 12 µM | EKVX 10.3 µM | HCC 2998 3.68 µM | HCT-116 9.68 µM | HL-60 5.55 µM | HOP-62 18.5 µM | HOP-92 12.2 µM | HT-29 3.33 µM | Hs-578T 9.79 µM | IGROV-1 8.87 µM | K562 7.41 µM | KM12 6.59 µM | LOX IMVI 5.6 µM | M14 2.65 µM | MCF7 10.7 µM | MDA-MB-231 4.13 µM | MDA-MB-435 13 µM | MDA-N 11.7 µM | MOLT-4 4.22 µM | Malme-3M 7.87 µM | NCI-H226 17.3 µM | NCI-H460 7.53 µM | NCI-H522 12.2 µM | NCI/ADR-RES 12.5 µM | OVCAR-3 11 µM | OVCAR-4 16.7 µM | OVCAR-5 12.8 µM | OVCAR-8 12.8 µM | PC-3 9.04 µM | RPMI-8226 24.5 µM | RXF 393 13.8 µM | SF-268 8.17 µM | SF-295 13.4 µM | SF-539 10.4 µM | SK-MEL-28 6.93 µM | SK-MEL-2 16 µM | SK-MEL-5 11.3 µM | SK-OV-3 16.9 µM | SN12C 12.3 µM | SNB-19 13.9 µM | SNB-75 7.76 µM | SR 3.35 µM | SW-620 13.6 µM | T47D 18.1 µM | TK-10 14.4 µM | U-251 8.11 µM | UACC-257 3.81 µM | UACC-62 7.8 µM
10.7 µM: HCT-15

Nc1n[n+]2cc(-c3ccccc3)n(CC(=O)c3ccccc3)c2s1
inactive: 786-0 20.5 µM | A498 > 100 µM | A549 > 100 µM | ACHN 65.2 µM | BT-549 19.6 µM | CAKI-1 > 100 µM | CCRF-CEM 15.8 µM | COLO 205 15.3 µM | DU-145 50.9 µM | EKVX 39.6 µM | HCC 2998 15 µM | HCT-116 16.7 µM | HL-60 35.5 µM | HOP-62 24.8 µM | HOP-92 14.1 µM | HT-29 27.2 µM | Hs-578T 17 µM | IGROV-1 70.8 µM | K562 29.7 µM | KM12 19.8 µM | LOX IMVI 17.9 µM | M14 21.3 µM | MCF7 10.8 µM | MDA-MB-231 29.5 µM | MDA-MB-435 36.9 µM | MDA-N 34.4 µM | MOLT-4 20.9 µM | Malme-3M 12.2 µM | NCI-H226 32.4 µM | NCI-H23 20.6 µM | NCI-H460 > 100 µM | NCI-H522 13.3 µM | NCI/ADR-RES > 100 µM | OVCAR-3 23.8 µM | OVCAR-5 18.8 µM | OVCAR-8 52 µM | PC-3 39 µM | RPMI-8226 17.1 µM | RXF 393 20.4 µM | SF-268 20.3 µM | SF-295 > 100 µM | SF-539 20.1 µM | SK-MEL-2 15.5 µM | SK-MEL-5 23.1 µM | SK-OV-3 > 100 µM | SN12C 42.6 µM | SNB-19 21.7 µM | SR 18.4 µM | SW-620 23.2 µM | T47D 22.6 µM | TK-10 23.6 µM | U-251 16.1 µM | UACC-257 25.5 µM | UACC-62 30.5 µM | UO-31 76.2 µM
44.7 µM: HCT-15

C(=N\c1ccc(-c2nc3ccccc3[nH]2)cc1)/c1cccs1
84.9 µM: HCT-15
inactive: 786-0 > 100 µM | A498 > 100 µM | A549 > 100 µM | ACHN > 100 µM | BT-549 27.4 µM | CAKI-1 > 100 µM | CCRF-CEM 22 µM | COLO 205 97.5 µM | DU-145 > 100 µM | EKVX > 100 µM | HCT-116 > 100 µM | HL-60 22 µM | HOP-62 > 100 µM | HOP-92 17.7 µM | HT-29 > 100 µM | Hs-578T > 100 µM | IGROV-1 19.8 µM | K562 81.7 µM | KM12 58.1 µM | LOX IMVI > 100 µM | M14 > 100 µM | MCF7 8.91 µM | MDA-MB-231 51.4 µM | MDA-MB-435 > 100 µM | MDA-N > 100 µM | MOLT-4 29.9 µM | Malme-3M > 100 µM | NCI-H226 > 100 µM | NCI-H23 > 100 µM | NCI-H460 > 100 µM | NCI-H522 62.8 µM | NCI/ADR-RES 43 µM | OVCAR-3 49.7 µM | OVCAR-4 > 100 µM | OVCAR-5 > 100 µM | OVCAR-8 49.9 µM | PC-3 73.1 µM | RPMI-8226 52 µM | RXF 393 56.6 µM | SF-268 > 100 µM | SF-295 75.7 µM | SF-539 > 100 µM | SK-MEL-28 > 100 µM | SK-MEL-2 > 100 µM | SK-MEL-5 54 µM | SK-OV-3 > 100 µM | SN12C > 100 µM | SNB-19 > 100 µM | SNB-75 81.1 µM | SR 45.3 µM | SW-620 96.4 µM | T47D 31.9 µM | TK-10 > 100 µM | U-251 89.7 µM | UACC-257 > 100 µM | UO-31 31.2 µM

CC1(C)OC2OC(C(=O)c3ccccc3)C3OC(C)(C)OC3C2O1 (stereo unspecified)
inactive: 786-0 > 100 µM | A498 > 100 µM | ACHN > 100 µM | BT-549 > 100 µM | CAKI-1 > 100 µM | CCRF-CEM > 100 µM | COLO 205 > 100 µM | DU-145 > 100 µM | EKVX > 100 µM | HCC 2998 > 100 µM | HCT-116 > 100 µM | HL-60 > 100 µM | HOP-62 > 100 µM | HOP-92 > 100 µM | Hs-578T > 100 µM | IGROV-1 > 100 µM | K562 > 100 µM | KM12 > 100 µM | LOX IMVI > 100 µM | M14 > 100 µM | MCF7 > 100 µM | MDA-MB-231 > 100 µM | MDA-MB-435 > 100 µM | MDA-N > 100 µM | MOLT-4 > 100 µM | NCI-H226 > 100 µM | NCI-H23 > 100 µM | NCI-H460 > 100 µM | NCI-H522 > 100 µM | NCI/ADR-RES > 100 µM | OVCAR-3 > 100 µM | OVCAR-4 > 100 µM | OVCAR-5 > 100 µM | OVCAR-8 > 100 µM | PC-3 > 100 µM | RPMI-8226 > 100 µM | RXF 393 > 100 µM | SF-268 > 100 µM | SF-295 > 100 µM | SF-539 > 100 µM | SK-MEL-2 > 100 µM | SK-MEL-5 > 100 µM | SK-OV-3 > 100 µM | SN12C > 100 µM | SNB-19 > 100 µM | SNB-75 > 100 µM | SR > 100 µM | SW-620 > 100 µM | T47D > 100 µM | TK-10 > 100 µM | U-251 > 100 µM | UACC-257 > 100 µM | UACC-62 > 100 µM | UO-31 > 100 µM
> 100 µM: HCT-15

NCC(=O)NC1(C(=O)O)CCCC1 (H-Gly-[Ac5c]-OH)
inactive: 786-0 > 100 µM | A498 > 100 µM | A549 > 100 µM | ACHN > 100 µM | BT-549 > 100 µM | CAKI-1 > 100 µM | COLO 205 > 100 µM | DU-145 > 100 µM | EKVX > 100 µM | HCC 2998 > 100 µM | HCT-116 > 100 µM | HOP-62 > 100 µM | HOP-92 > 100 µM | HT-29 > 100 µM | Hs-578T > 100 µM | IGROV-1 > 100 µM | K562 > 100 µM | KM12 > 100 µM | LOX IMVI > 100 µM | M14 > 100 µM | MCF7 > 100 µM | MDA-MB-231 > 100 µM | MDA-MB-435 > 100 µM | MDA-N > 100 µM | MOLT-4 > 100 µM | Malme-3M > 100 µM | NCI-H23 > 100 µM | NCI-H460 > 100 µM | NCI-H522 > 100 µM | NCI/ADR-RES > 100 µM | OVCAR-3 > 100 µM | OVCAR-4 > 100 µM | OVCAR-5 > 100 µM | OVCAR-8 > 100 µM | PC-3 > 100 µM | RPMI-8226 > 100 µM | RXF 393 > 100 µM | SF-268 > 100 µM | SF-295 > 100 µM | SF-539 > 100 µM | SK-MEL-28 > 100 µM | SK-MEL-2 > 100 µM | SK-MEL-5 > 100 µM | SK-OV-3 > 100 µM | SN12C > 100 µM | SNB-19 > 100 µM | SNB-75 > 100 µM | SR > 100 µM | SW-620 > 100 µM | T47D > 100 µM | TK-10 > 100 µM | U-251 > 100 µM | UACC-257 > 100 µM | UACC-62 > 100 µM | UO-31 > 100 µM
> 100 µM: HCT-15
